Here are results for 18 compounds from the RepoRT retention time repository.

The nature of the series: RP, Waters ACQUITY UPLC BEH C18, 150 × 2.1 mm, 1.7 µm, 40 °C, 0.4 mL/min, estimated dead time 0.83 min; A: water + 0.1% formic acid, pH 3; B: acetonitrile; gradient (min/%B) 0/2 1.5/8 3.5/14 6/16 8/25 9.2/98 10.5/2 12/2. The note with it: stereoisomer not certain.
With `O=c1cc(-c2ccc(O)cc2)oc2c(C3OCC(O)C(O)C3O)c(O)c(C3OC(CO)C(O)C(O)C3O)c(O)c12` (stereo not drawn) [apigenin 6-C-glucoside-8-C-arabinoside], the LC retention time was 4.93 min.

Regarding `COc1cc(-c2cc(=O)c3c(O)cc(OC4OC(COC(=O)C=Cc5ccc(O)cc5)C(O)C(O)C4O)cc3o2)ccc1O` (stereo not drawn) [chrysoeriol 7-O-[6''-coumaroyl]-glucoside], the LC retention time was 10.6 min.

`COc1cc(-c2cc(=O)c3c(O)cc(OC4OC(COC5OC(CO)C(O)C(O)C5O)C(O)C(O)C4O)cc3o2)ccc1O` (stereo not drawn) [chrysoeriol 7-O-diglucoside]: the LC retention time is 8.42 min.

For `COc1cc(C=CC(=O)OCC2OC(OC3C(c4c(O)cc5oc(-c6ccc(O)cc6)cc(=O)c5c4O)OC(CO)C(O)C3O)C(O)C(O)C2O)ccc1O` (stereo not drawn) [feruloyl-isovitexin 2''-O-glucoside], the LC retention time was 7.88 min.

Turning to `NC(N)=NCCCCNC(=O)C=Cc1ccc2c(c1)C(C(=O)NCCCCN=C(N)N)C(c1ccc(O)cc1)O2` (stereo not drawn) [hordatine A], the LC retention time was 4.52 min.

`COc1cc(C=CC(=O)NCCCCN=C(N)N)cc2c1OC(c1ccc(O)cc1)C2C(=O)NCCCCN=C(N)N` (stereo not drawn) [hordatine B]: the LC retention time is 4.42 min.

`COc1cc(C=CC(=O)OCC2OC(Oc3cc4oc(-c5ccc(O)c(O)c5)cc(=O)c4c(O)c3C3OC(CO)C(O)C(O)C3O)C(O)C(O)C2O)ccc1O` (stereo not drawn) [isoorientin 7-O-[6''-feruloyl]-glucoside]: the LC retention time is 6.23 min.

On to `CC1OC(OC2C(Oc3cc4oc(-c5ccc(O)c(O)c5)cc(=O)c4c(O)c3C3OC(CO)C(O)C(O)C3O)OC(CO)C(O)C2O)C(O)C(O)C1O` (stereo not drawn) [isoorientin 7-O-rhamnosylglucoside], for which the LC retention time is 4.69 min.

As to `COc1cc(-c2cc(=O)c3c(O)c(C4OC(CO)C(O)C(O)C4OC4OCC(O)C(O)C4O)c(O)cc3o2)ccc1O` (stereo not drawn) [isoscoparin 2''-O-arabinoside], the LC retention time was 6.97 min.

As for `COc1cc(-c2cc(=O)c3c(O)c(C4OC(CO)C(O)C(O)C4O)c(OC4OC(COC(=O)C=Cc5cc(OC)c(O)c(OC)c5)C(O)C(O)C4O)cc3o2)ccc1O` (stereo not drawn) [isoscoparin 7-O-[6''-sinapoyl]-glucoside], the LC retention time is 7.62 min.

`O=c1cc(-c2ccc(O)cc2)oc2cc(O)c(C3OC(CO)C(O)C(O)C3OC3OCC(O)C(O)C3O)c(O)c12` (stereo not drawn) [isovitexin 2''-O-arabinoside]: the LC retention time is 5.62 min.

Turning to `O=c1cc(-c2ccc(O)cc2)oc2cc(OC3OC(CO)C(O)C(O)C3O)c(C3OC(CO)C(O)C(O)C3O)c(O)c12` (stereo not drawn) [isovitexin 7-O-glucoside (saponarin)], the LC retention time is 4.61 min.

As to `CC1OC(OC2C(Oc3cc4oc(-c5ccc(O)cc5)cc(=O)c4c(O)c3C3OC(CO)C(O)C(O)C3O)OC(CO)C(O)C2O)C(O)C(O)C1O` (stereo not drawn) [isovitexin 7-O-rhamnosylglucoside], the LC retention time is 4.81 min.

For `O=c1cc(-c2ccc(O)cc2)oc2c(C3OC(CO)C(O)C(O)C3O)c(O)c(C3OC(CO)C(O)C(O)C3O)c(O)c12` (stereo not drawn) [isovitexin 8-C-glucoside], the LC retention time is 5.25 min.

On to `O=c1cc(-c2ccc(O)c(O)c2)oc2c(C3OC(CO)C(O)C(O)C3O)c(O)c(C3OCC(O)C(O)C3O)c(O)c12` (stereo not drawn) [luteolin 6-C-arabinoside 8-C-glucoside], for which the LC retention time is 4.87 min.

With `COc1cc(-c2cc(=O)c3c(O)c(C4OC(CO)C(O)C(O)C4OC4OCC(OC(=O)C=Cc5cc(OC)c(O)c(OC)c5)C(O)C4O)c(O)cc3o2)ccc1O` (stereo not drawn) [sinapoyl-isoscoparin 2''-O-arabinoside], the LC retention time is 9.65 min.

As to `COc1cc(C=CC(=O)OC2COC(OC3C(c4c(O)cc5oc(-c6ccc(O)cc6)cc(=O)c5c4O)OC(CO)C(O)C3O)C(O)C2O)cc(OC)c1O` (stereo not drawn) [sinapoyl-isovitexin 2''-O-arabinoside], the LC retention time was 9.32 min.

As for `COc1cc(C=CC(=O)OCC2OC(Oc3cc(O)c4c(=O)cc(-c5cc(OC)c(O)c(OC)c5)oc4c3)C(O)C(O)C2O)cc(OC)c1O` (stereo not drawn) [sinapoyl-tricin 7-O-glucoside], the LC retention time is 4.56 min.
